Source: patent US20230295234A1, “ANTIMICROBIAL PEPTIDOMIMETICS” (SPEXIS AG, priority 2020, published 2023)
Peptide text beside a SMILES is read from it.

Columns and labels:
[1] = tested on: Escherichia coli ATCC 25922; details: ATCC 25922
Outline: (§1)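 Two-fold serial dilutions of peptide, in water with polysorbate 80 (0.002% final), met bacteria adjusted to 0.5 McFarland then diluted to about 5×10^5 CFU/mL. Medium was cation-adjusted Mueller-Hinton II broth; peptide stocks were 1 mg/mL in sterile water.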

[2] = tested on: Escherichia coli MCR-1 Af 45; details: MCR-1 Af 45
Outline: as §1

[3] = tested on: Klebsiella pneumoniae SSI3010; details: SSI3010
Outline: as §1

[4] = tested on: human red blood cells (hRBC); assay: Hemolysis of human red blood cells; format: cell-based; details: red cells of human, 1 h
Outline: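 PBS-washed human red blood cells (20% v/v) were incubated with peptide at 200 μg/mL for 1 h at 37 °C with shaking. Supernatant OD was read at 540 nm after 8-fold dilution. Hemolysis is expressed as percent of the water control.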

Compound	Escherichia coli ATCC 25922 MIC [1]	Escherichia coli MCR-1 Af 45 MIC [2]	Klebsiella pneumoniae SSI3010 MIC [3]	Hemolysis at 0.2 g/L [4]
CC[C@H](C)[C@H](NC(=O)[C@@H](NC(=O)[C@@H]1CCCN1C(=O)[C@@H](NC(=O)[C@@H]1CCCN1C(=O)[C@H](CCCCN)NC(=O)[C@@H](N)CCCCN)C(C)C)[C@@H](C)CC)C(=O)N[C@@H](Cc1ccc(O)cc1)C(=O)N[C@H]1CSSC(C)(C)[C@@H](C(=O)N[C@@H](CCN)C(=O)N[C@@H](CCCNC(=N)N)C(=O)N[C@@H](Cc2ccc(O)cc2)C(=O)O)NC(=O)[C@H](CCCCN)NC(=O)[C@@H](CCN)NC(=O)[C@H]([C@@H](C)O)NC(=O)[C@H](CCN)NC(=O)[C@H](CCCNC(=N)N)NC(=O)[C@H](CC(N)=O)NC1=O [Example 103] (HELM PEPTIDE1{K.K.P.V.P.I.I.Y.C.N.R.[Dab].T.[NCC[C@@H](N[*:1])C(=O)[*:2]].K.[Pen].[Dab].R.Y}$PEPTIDE1,PEPTIDE1,9:R3-16:R3$$$V2.0)	≤0.03125 µg/mL	≤0.03125 µg/mL	0.0625 µg/mL	0%
CC[C@H](C)[C@H](NC(=O)[C@@H](NC(=O)[C@@H]1CCCN1C(=O)[C@@H](NC(=O)[C@@H]1CCCN1C(=O)[C@H](CCCCN)NC(=O)[C@@H](N)CCCCN)C(C)C)[C@@H](C)CC)C(=O)N[C@@H](Cc1ccc(O)cc1)C(=O)N[C@H]1CSSC[C@@H](C(=O)N[C@@H](CCN)C(=O)N[C@@H](CCCNC(=N)N)C(=O)N[C@@H](Cc2ccc(O)cc2)C(=O)O)NC(=O)[C@H](CCCCN)NC(=O)[C@@H](CCN)NC(=O)[C@H]([C@@H](C)O)NC(=O)[C@H](CCN)NC(=O)CN(CCCNC(=N)N)C(=O)[C@H](CC(N)=O)NC1=O [Example 104] (HELM PEPTIDE1{K.K.P.V.P.I.I.Y.C.N.[N=C(N)NCCCN(CC(=O)[*:2])[*:1]].[Dab].T.[NCC[C@@H](N[*:1])C(=O)[*:2]].K.C.[Dab].R.Y}$PEPTIDE1,PEPTIDE1,9:R3-16:R3$$$V2.0; N-terminus assumed)	0.25 µg/mL	0.125 µg/mL	0.125 µg/mL	0%
CC[C@H](C)[C@H](NC(=O)[C@@H](NC(=O)[C@@H]1CCCN1C(=O)[C@@H](NC(=O)[C@@H]1CCCN1C(=O)[C@H](CCCCN)NC(=O)[C@@H](N)CCCCN)C(C)C)[C@@H](C)CC)C(=O)N[C@@H](Cc1ccc(O)cc1)C(=O)N[C@H]1CSSC[C@@H](C(=O)N[C@@H](CCN)C(=O)N[C@@H](CCCNC(=N)N)C(=O)N[C@@H](Cc2ccc(O)cc2)C(=O)O)NC(=O)[C@H](CCCCN)NC(=O)[C@@H](CCN)NC(=O)[C@H]([C@@H](C)O)NC(=O)CN(CCCCN)C(=O)[C@H](CCCNC(=N)N)NC(=O)[C@H](CC(N)=O)NC1=O [Example 105] (HELM PEPTIDE1{K.K.P.V.P.I.I.Y.C.N.R.[NCCCCN(CC(=O)[*:2])[*:1]].T.[NCC[C@@H](N[*:1])C(=O)[*:2]].K.C.[Dab].R.Y}$PEPTIDE1,PEPTIDE1,9:R3-16:R3$$$V2.0)	0.125 µg/mL	0.0625 µg/mL	0.125 µg/mL	0%
